Series [1] is described as follows: Solubility in various solvents. Type of series: physicochemical. More on the design: key: +++: dissolved well; ++: almost dissolved, but not completely dissolved and somewhat precipitated; +: opaquely dispersed; −: not dissolved but precipitated. The protocol:
Solubility properties of polyaniline ES in various organic solvents using the dopants of Examples were compared and checked in the same experimental conditions. […] After a basket mixing process, transmittances were measured and an average particle size was measured by using a particle size analyzer, and measurement results are as shown in Table 5.

Series [2] in a line: Acidity / pH of doping solution, titration with 0.1 N KOH. The class given is physicochemical. An excerpt: In order to confirm a doping function of the dopants of Examples, pH of a doping solution was checked by using a 0.1 N KOH solution. […] Therefore, a function as a dopant could be confirmed.

With `O=S(=O)(O)CCCOc1ccc(-c2ccccc2)cc1` [Dopant IV], in series [1], the “Solubility in BuO—EtOH” value is listed as “+”, the “Solubility in CHCl3” value is given as “−”, the “Solubility in H2O” value is listed as “+++” and the “Solubility in MEK” value is “+”. Moreover, in series [1], the “Solubility in MeOH” value was “+++”, the “Solubility in NMP” value was “+++”, the “Solubility in isopropyl alcohol” value was “+” and the Solubility in m-cresol result is on record as “+++”. The Solubility in toluene entry in series [1] is recorded as “−”.

With `Cc1cc(OCCCS(=O)(=O)O)ccc1O` [Dopant VI], in series [1], the “Solubility in BuO—EtOH” value was “+++”, the “Solubility in CHCl3” value was “−”, the “Solubility in H2O” value is reported as “+++” and the “Solubility in MEK” value is “+”. Moreover, in series [1], the “Solubility in MeOH” value is “+++”, the “Solubility in NMP” value is on record as “+++”, the “Solubility in isopropyl alcohol” value is listed as “+++” and the Solubility in m-cresol result is on record as “++”. Also, in series [1], the Solubility in toluene entry is “−”.

As for `O=S(=O)(O)CCCOc1ccc(O)cc1` [Dopant II], in series [1], the “Solubility in BuO—EtOH” value is “+++”, the “Solubility in CHCl3” value was “−”, the “Solubility in H2O” value was “+++” and the “Solubility in MEK” value is “+”. In addition, in series [1], the “Solubility in MeOH” value is reported as “+++”, the “Solubility in NMP” value is “+++”, the “Solubility in isopropyl alcohol” value is “++” and the Solubility in m-cresol entry is given as “++”. Further, in series [1], the Solubility in toluene result was “−”. Also, the “Titration (Acidity) 0.1N KOH; converted into sulfonic acid” value in series [2] is listed as 85%.

Take `Cc1cccc(OCCCS(=O)(=O)O)c1` [Dopant I]: in series [1], the “Solubility in BuO—EtOH” value is given as “++”, the “Solubility in CHCl3” value is “−”, the “Solubility in H2O” value is recorded as “+++” and the “Solubility in MEK” value is on record as “+”. In addition, in series [1], the “Solubility in MeOH” value is listed as “+++”, the “Solubility in NMP” value was “++”, the “Solubility in isopropyl alcohol” value is reported as “+++” and the Solubility in m-cresol entry is “++”. Further, the Solubility in toluene entry in series [1] is “−”. Also, the “Titration (Acidity) 0.1N KOH; converted into sulfonic acid” value in series [2] amounted to 86%.

Turning to `O=S(=O)(O)CCCOc1ccc(OCc2ccccc2)cc1` [Dopant V], in series [1], the “Solubility in BuO—EtOH” value is “+++”, the “Solubility in CHCl3” value is recorded as “−”, the “Solubility in H2O” value was “+++” and the “Solubility in MEK” value is listed as “++”. Besides, in series [1], the “Solubility in MeOH” value is reported as “+++”, the “Solubility in NMP” value is on record as “+++”, the “Solubility in isopropyl alcohol” value is “++” and the Solubility in m-cresol result was “++”. Also, in series [1], the Solubility in toluene entry was “−”.

Values taken from patent publication US20140051815A1, “ORGANIC SULFONIC ACID COMPOUND, DOPANT HAVING SAME, AND CONDUCTIVE POLYMER COMPLEX HAVING THE DOPANT” (Ajou University Industry-Academic Cooperation Foundation, priority 2011, published 2014).
